Assay results from patent publication US20080287407A1, “Nitric Oxide Releasing Pyruvate Compounds, Compositions and Methods of Use” (NitroMed, Inc., priority 2003, published 2008).

melting point [°C]	Structure (SMILES)
76 to 77	CC(=O)C(=O)N[C@H](CO[N+](=O)[O-])c1ccccc1 [Example 4, N-[(1S)-2-(Nitrooxy)-1-phenylethyl]-2-oxopropanamide]
72 to 75	CC(=O)C(=O)N[C@H](CO[N+](=O)[O-])Cc1ccccc1 [Example 5, N-[(1S)-2-(Nitrooxy)-1-benzylethyl]-2-oxopropanamide]
